Test results published in the NIST ThermoML archive (doi:10.1021/je0503204).
± gives the expanded uncertainty stated by the source.

Conditions: Liquid; for speed of sound: Pulse-echo method

CCCCCCCl [1-chlorohexane]
Conditions | mass density, 353.15 K [kg/m3] | mass density, 373.15 K [kg/m3] | mass density, 393.15 K [kg/m3] | mass density, 413.15 K [kg/m3] | speed of sound, 353.15 K [m/s] | speed of sound, 373.15 K [m/s] | speed of sound, 393.15 K [m/s] | speed of sound, 413.15 K [m/s]
100 kPa | – | 802.2 ± 4.8 | 780.7 ± 4.7 | 759.1 ± 4.6 | – | 922.9 ± 3.7 | 853.3 ± 3.4 | 784 ± 3.2
5000 kPa | – | 809.3 ± 4.9 | 789.2 ± 4.7 | 769.6 ± 4.6 | – | 957 ± 3.9 | 893.8 ± 3.6 | 829.4 ± 3.3
9910 kPa | – | 815.2 ± 4.9 | 796.7 ± 4.8 | 777.6 ± 4.7 | – | 989.6 ± 4 | 928.6 ± 3.7 | 867.7 ± 3.5
19720 kPa | – | 827.4 ± 5 | 810.5 ± 4.9 | 793.3 ± 4.8 | – | 1050.4 ± 4.2 | 993.2 ± 4 | 938.1 ± 3.8
29530 kPa | – | 838.3 ± 5 | 822.6 ± 4.9 | 806.8 ± 4.8 | – | 1105.8 ± 4.5 | 1051.8 ± 4.2 | 1001.1 ± 4
39340 kPa | – | 848 ± 5.1 | 833.3 ± 5 | 818.6 ± 4.9 | – | 1156.5 ± 4.7 | 1105.2 ± 4.5 | 1057.7 ± 4.3
49150 kPa | – | 856.9 ± 5.1 | 843 ± 5.1 | 829.2 ± 5 | – | 1203.2 ± 4.8 | 1154.2 ± 4.7 | 1109 ± 4.5
58960 kPa | – | 865 ± 5.2 | 851.8 ± 5.1 | 838.7 ± 5 | – | 1246.3 ± 5 | 1199.4 ± 4.8 | 1155.8 ± 4.7
68770 kPa | – | 872.5 ± 5.2 | 859.8 ± 5.2 | 847.4 ± 5.1 | – | 1286.9 ± 5.2 | 1241.4 ± 5 | 1198.9 ± 4.8
78580 kPa | – | 879.4 ± 5.3 | 867.2 ± 5.2 | 855.3 ± 5.1 | – | 1324.8 ± 5.3 | 1280.8 ± 5.2 | 1239.1 ± 5
88390 kPa | – | 885.9 ± 5.3 | 874.1 ± 5.2 | 862.7 ± 5.2 | – | 1360.8 ± 5.5 | 1318 ± 5.3 | 1276.9 ± 5.1
98200 kPa | 903.8 ± 5.4 | 891.9 ± 5.4 | 880.6 ± 5.3 | 869.5 ± 5.2 | 1441.9 ± 5.8 | 1395.1 ± 5.6 | 1353.3 ± 5.5 | 1312.8 ± 5.3
108000 kPa | 909.2 ± 5.5 | 897.6 ± 5.4 | 886.6 ± 5.3 | 875.8 ± 5.3 | 1474 ± 5.9 | 1427.9 ± 5.7 | 1387.2 ± 5.6 | 1347.4 ± 5.4
117800 kPa | 914.3 ± 5.5 | 903 ± 5.4 | 892.3 ± 5.4 | 881.8 ± 5.3 | 1504.7 ± 6.1 | 1459.6 ± 5.9 | 1419.7 ± 5.7 | 1380.6 ± 5.6
127600 kPa | 919.1 ± 5.5 | 908.1 ± 5.4 | 897.6 ± 5.4 | 887.4 ± 5.3 | 1534.3 ± 6.2 | 1490.1 ± 6 | 1451.2 ± 5.8 | 1413 ± 5.7
137400 kPa | 923.7 ± 5.5 | 912.9 ± 5.5 | 902.7 ± 5.4 | 892.7 ± 5.4 | 1562.7 ± 6.3 | 1519.6 ± 6.1 | 1481.6 ± 6 | 1444.5 ± 5.8
147200 kPa | 928.1 ± 5.6 | 917.5 ± 5.5 | 907.5 ± 5.4 | 897.8 ± 5.4 | 1590.1 ± 6.4 | 1548.1 ± 6.2 | 1511.1 ± 6.1 | 1475.2 ± 5.9
157100 kPa | 932.3 ± 5.6 | 921.9 ± 5.5 | 912.1 ± 5.5 | 902.5 ± 5.4 | 1616.4 ± 6.5 | 1575.5 ± 6.3 | 1539.5 ± 6.2 | 1504.9 ± 6.1
166900 kPa | 936.3 ± 5.6 | 926.1 ± 5.6 | 916.4 ± 5.5 | 907.1 ± 5.4 | 1641.8 ± 6.6 | 1601.7 ± 6.4 | 1566.9 ± 6.3 | 1533.7 ± 6.2
176700 kPa | 940.1 ± 5.6 | 930.1 ± 5.6 | 920.6 ± 5.5 | 911.4 ± 5.5 | 1666.1 ± 6.7 | 1626.5 ± 6.5 | 1592.8 ± 6.4 | 1560.9 ± 6.3
186500 kPa | 943.8 ± 5.7 | 934 ± 5.6 | 924.6 ± 5.5 | 915.6 ± 5.5 | 1689.4 ± 6.8 | 1649.5 ± 6.6 | 1617.2 ± 6.5 | 1586.4 ± 6.4
196300 kPa | 947.4 ± 5.7 | 937.7 ± 5.6 | 928.4 ± 5.6 | 919.5 ± 5.5 | 1711.4 ± 6.9 | 1670.6 ± 6.7 | 1639.7 ± 6.6 | 1609.7 ± 6.5
